According to patent US10287228B2, “Antimalarial agent, methods and uses thereof” (UNIVERSIDADE DO PORTO, priority 2015, dated 2019):
Where two headings read alike, the source gives them in different places.

Columns and labels:
P. falciparum 3D7 strain = test: SYBR Green I antimalarial activity, P. falciparum 3D7; assay type: cell-based, Plasmodium falciparum; settings: read-out: IC50 P. faldparum 3D7
Description: (§1) In an embodiment, hierridin B and hierridin C were tested for in vitro activity towards the P. falciparum strains, in particular P. falciparum 3D7 strain and the multidrug-resistant Dd2 strain to verify whether the chlorine atom featured in hierridin C affects the activity of the compound, in particular the antimalarial activity.
In an embodiment, the laboratory-adapted P. falciparum 3D7 and Dd2 strains were cultivated on human erythrocytes suspended in RPMI 1640 medium supplemented with 25 mM HEPES, 6.8 mM hypoxanthine and 10% AlbuMAX II (Life Technologies, Carlsbad, Calif., USA), at pH 7.2. […] Staging and parasitaemia were determined by light microscopy of Giemsa-stained thin blood smears.
(§2) In an embodiment, the antimalarial activities of hierridin B and hierridin C were determined using the SYBR Green I (Life Technologies). Early ring stage parasites were tested in triplicate in a 96-well plate and incubated with drugs for 48 h (37° C., 5% CO2), parasite growth was assessed with SYBR Green I. Each compound was tested in a concentration ranging from 10-0.0097 μM (0.2% DMSO). Fluorescence intensity was measured with a multi-mode microplate reader (Triad, Dynex, Chantilly, Va., USA) with excitation and emission wavelengths of 485 nm and 535 nm, respectively, and analyzed by nonlinear regression using GraphPad Prism 5 (GraphPad Software, La Jolla, Calif., USA).

[1] = test system: P. falciparum multidrug-resistant Dd2 strain; test: microbe, parasite or virus in culture; assay type: cell-based, Plasmodium falciparum
Description: as §1
In an embodiment, the laboratory-adapted P. falciparum 3D7 and Dd2 strains were cultivated on human erythrocytes suspended in RPMI 1640 medium supplemented with 25 mM HEPES, 6.8 mM hypoxanthine and 10% AlbuMAX II (Life Technologies, Carlsbad, Calif., USA), at pH 7.2. Cultures were maintained at 37° C. under an atmosphere of 5% O2, 3-5% CO2 and N2, and synchronized by sorbitol treatment prior to the assays. Staging and parasitaemia were determined by light microscopy of Giemsa-stained thin blood smears.
as §2

[2] = test system: HT-29 colon adenocarcinoma human cells; settings: cited from earlier work
[3] = test system: normal prostate cell line PNT2; test: Cytotoxicity, cell lines exposed to hierridin C; assay type: cell-based; settings: PNT2, up to 30 μg mL−1 (75.2 μM)
Description: (§3) In an embodiment, several cell lines were exposed to hierridin C, in particular to a concentration of hierridin C up to 30 μg mL^−1 (75.2 μM). The cell lines exposed to hierridin C, were in particular the cell lines of hepatocellular carcinoma HepG2, colon adenocarcinoma HT-29, neuroblastoma SH-SY5Y, breast carcinoma T47D, normal prostate cell line PNT2, breast adenocarcinoma, RKO colon carcinoma and MG-63 osteosarcoma.

breast adenocarcinoma = test: Cytotoxicity, cell lines exposed to hierridin C; assay type: cell-based; settings: up to 30 μg mL−1 (75.2 μM)
Description: as §3

neuroblastoma SH-SY5Y = test: Cytotoxicity, cell lines exposed to hierridin C; assay type: cell-based; settings: up to 30 μg mL−1 (75.2 μM)
Description: as §3

breast carcinoma T47D = test: Cytotoxicity, cell lines exposed to hierridin C; assay type: cell-based; settings: up to 30 μg mL−1 (75.2 μM)
Description: as §3

[4] = test system: hepatocellular carcinoma HepG2; test: Cytotoxicity, cell lines exposed to hierridin C; assay type: cell-based; settings: HepG2, up to 30 μg mL−1 (75.2 μM)
Description: as §3

MG-63 osteosarcoma = test: Cytotoxicity, cell lines exposed to hierridin C; assay type: cell-based; settings: MG-63, up to 30 μg mL−1 (75.2 μM)
Description: as §3

RKO colon carcinoma = test: Cytotoxicity, cell lines exposed to hierridin C; assay type: cell-based; settings: up to 30 μg mL−1 (75.2 μM)
Description: as §3

[5] = test system: colon adenocarcinoma HT-29; test: Cytotoxicity, cell lines exposed to hierridin C; assay type: cell-based, human; settings: HT-29, up to 30 μg mL−1 (75.2 μM)
Description: as §3

In the case of `CCCCCCCCCCCCCCCc1cc(OC)cc(OC)c1O` [Hierridin B, reference compound], the IC50 (P. falciparum 3D7 strain; 3D7 strain (sensitive to chloroquine), 48 h incubation, SYBR Green I) is listed as 2090 ± 80 nM, the IC50 ([1]; Dd2 strain (resistant to chloroquine and mefloquine), 48 h incubation, SYBR Green I, read-out: IC50 P. faldparum Dd2) is listed as 2250 ± 670 nM and the “cytotoxicity towards HT-29” value [2] is listed as “modest, selective cytotoxicity”.

With `CCCCCCCCCCCCCCCc1c(O)c(OC)cc(OC)c1Cl` [Hierridin C, 3-chloro-4,6-dimethoxy-2-pentadecylphenol] the IC50 (P. falciparum 3D7 strain; Plasmodium falciparum, 3D7, 48 h) was 1520 ± 50 nM, the cytotoxicity [3] was “No cytotoxicity was observed” and the cytotoxicity (breast adenocarcinoma) was “No cytotoxicity was observed”. For the same molecule, the cytotoxicity (neuroblastoma SH-SY5Y) was “No cytotoxicity was observed”, the cytotoxicity (breast carcinoma T47D) was “No cytotoxicity was observed” and the cytotoxicity [4] was “No cytotoxicity was observed”. The cytotoxicity (MG-63 osteosarcoma) was “No cytotoxicity was observed”, the cytotoxicity (RKO colon carcinoma) was “No cytotoxicity was observed” and the “Resistance indices (RI)” value ([1]; Dd2 versus 3D7) was 0.93. For the same molecule, the IC50 ([1]; Plasmodium falciparum, DD2, 48 h, read-out: IC50 P. faldparum Dd2) was 2310 ± 110 nM, the IC50 ([1]; Plasmodium falciparum, DD2, read-out: IC50 in P. falciparum strains) was roughly 2000 nM and the therapeutical index ([1]; relative to IC50 in P. falciparum strains) was “>= 50”. For the same molecule, the cytotoxicity [5] was “No cytotoxicity was observed”.
